Laboratory results: US6355627B1, “Branched cyclodextrin clathrate compound of hinokitiols and composition containing the same” (Takasago International Corporation, priority 1999, dated 2002)
Converted amounts (≈) assume the structure as drawn.

What was measured:
[1] = system: Corynebacterium minutissiumum ATCC 23348; test: Antibacterial test, serial double dilution method (MIC); type: cell-based; conditions: Muller-Hilton agar, 37° C., 24 hours, concentration converted into hinokitiol
Text: (§1) The clathrate compound of the present invention and non-clathrate compounds were each subjected to an antibacterial test. Aerobic and anaerobic bacteria used in the test are as follows:
Cm: Corynebacterium minutissiumum ATCC 23348
(§2) The samples used in the antibacterial test are as follows in which butylparabene was used as a control compound. The concentrations of clathrate compounds were all measured by converting into the concentrations of a hinokitiol. Samples of antibacterial agents
(§3) Method: Serial Double Dilution Method
(§4) As for the culture medium, an aqueous solution containing 38 g/l of a Muller-Hilton agar medium (manufactured by DEFCO) was used for aerobic bacteria and an aqueous solution containing 59 g/l of a GAM agar medium (manufactured by Nissui Pharmaceutical Co., Ltd.) for anaerobic bacteria. Each subject compound was added to each corresponding medium in a manner that the concentration of a hinokitiol was 400 μg/ml and diluted according to the serial double dilution method using the same medium. 10 ml of each resulting medium was poured into a plastic Schale with an inside diameter of 90 mm and was solidified. The solidified medium in the Schale was divided. 0.1 ml of a distilled water suspension containing the subject microorganisms (the number of microorganisms: 10^6-10^9/ml) was inoculated into each compartment and incubated at 37° C. for 24 hours. […]

[2] = system: Corinebacterium xerosis JCM 1324; test: as above; type: cell-based; conditions: Muller-Hilton agar, 37° C., 24 hours; concentration converted into hinokitiol
Text: as §1
Cx: Corinebacterium xerosis JCM 1324
as §2, §3, §4

[3] = system: Malassezia furfur IFO 0656; test: as above; type: cell-based; conditions: Muller-Hilton agar, 37° C., 24 hours, concentration converted into hinokitiol
Text: as §1
Mf: Malassezia furfur IFO 0656
as §2, §3, §4

[4] = system: Staphylococcus aureus IAM 1011; test: as above; type: cell-based; conditions: Muller-Hilton agar, 37° C., 24 hours, concentration converted into hinokitiol
Text: as §1
Sa: Staphylococcus aureus IAM 1011
as §2, §3, §4

[5] = system: Escherichia coli IFO 3972; test: as above; type: cell-based; conditions: Muller-Hilton agar, 37° C., 24 hours, concentration converted into hinokitiol
Text: as §1
Ec: Escherichia coli IFO 3972
as §2, §3, §4

[6] = system: Serratia marcessenes IFO 3736; test: as above; type: cell-based; conditions: Muller-Hilton agar, 37° C., 24 hours, concentration converted into hinokitiol
Text: as §1
Sm: Serratia marcessenes IFO 3736
as §2, §3, §4

[7] = system: Proteus vulgaris IFO 3167; test: as above; type: cell-based; conditions: Muller-Hilton agar, 37° C., 24 hours, concentration converted into hinokitiol
Text: as §1
Pv: Proteus vulgaris IFO 3167
as §2, §3, §4

[8] = Solubility in water at 15° C.; type: physicochemical
Method: The solubilities of the above various branched CD clathrate compounds prepared in the above examples and reference example in water at 15° C. are shown in Table 1.

[9] = Evaluation of the heat stability (sublimation); type: physicochemical; conditions: 1000 mg allowed to stand at 90° C. for 20 hours
Text: The results of the residual weight, sublimation rate (%) and sublimation rate (%) converted into a hinokitiol were shown in Table 4.

[10] = system: Staphylococcus epidermidis JCM 2414; test: Antibacterial test, serial double dilution method (MIC); type: cell-based; conditions: JCM2414, Muller-Hilton agar, 37° C., 24 hours, concentration converted into hinokitiol
Text: as §1
Se: Staphylococcus epidermidis JCM 2414
as §2, §3, §4

SMILES	MIC, Cm [1] [µg/mL]	MIC, Cx [2] [µg/mL]	MIC, Mf [3] [µg/mL]	MIC, Sa [4] [µg/mL]	MIC, Ec [5] [µg/mL]	MIC, Sm [6] [µg/mL]	MIC, Pv [7] [µg/mL]	Solubility in water [8] [%]	Residual weight [9] [mg]	Sublimation rate [9] [%]	MIC [10] [µg/mL]	MIC ([1]; Corynebacterium, ATCC23348) [µg/mL]	MIC [2] [µg/mL]	MIC ([3]; Malassezia furfur, IFO0656) [µg/mL]	MIC ([4]; Staphylococcus aureus, IAM1011) [µg/mL]	MIC ([5]; Escherichia coli, IFO3972) [µg/mL]	MIC ([6]; Serratia, IFO3736) [µg/mL]	MIC ([7]; Proteus vulgaris, IFO3167) [µg/mL]
CCCCOC(=O)c1ccc(O)cc1 [Butylparabene]	100 (≈ 515 µM)	100 (≈ 515 µM)	100 (≈ 515 µM)	100 (≈ 515 µM)	400 (≈ 2060 µM)	>400	100 (≈ 515 µM)											
CC(C)c1cccc(=O)c(O)c1 [Hinokitiol]								<0.05	8	99.2	50 (≈ 304 µM)	50 (≈ 304 µM)	50 (≈ 304 µM)	50 (≈ 304 µM)	50 (≈ 304 µM)	50 (≈ 304 µM)	200 (≈ 1220 µM)	50 (≈ 304 µM)
CC(C)c1cccc(=O)c([O-])c1.[Na+] [sodium salt of hinokitiol]									764	23.6								
